Assay results published in patent publication US6770290B1, “Amphotericin B liposome preparation” (priority 1987, dated 2004).

System: Candida albicans
Assay: Therapeutic efficacy in C. albicans infected mice
Type: in vivo
Conditions: single dose 3 days post infection; for 29 SURVIVORS (%) / surviving mice at day 29 post infection: n = 8 per group
Procedure: 360.1 mg of the spray dried powder were hydrated at 65 degrees Centigrade for 40 minutes with 9% lactose containing 10 mM succinate buffer, pH 5.62. Liposomes were prepared by sonication for four minutes with a ½ probe at 65° C. under a nitrogen atmosphere. Three successive batches of liposomes were prepared in a similar fashion. After sterile filtration, the Amphotericin B concentration was determined to be 1.73 mg/ml.
For therapeutic efficacy studies, groups of 8 mice were given intravenous inoculations of 3.5×10^5 Candida albicans yeast cells. Three days post-infection, animals were treated with a single dose of either free Amphotericin B or liposomal Amphotericin B. A severe systemic infection existed in animals which were not treated until three days post infection. Each successive group was treated with an increasing dose of medicament in order to establish a dose response relationship. Twenty-nine days after infection the study was evaluated for surviving animals. All untreated control animals had died by 8 days post-infection, with a median survival of 7 days. […] In contrast, all animals treated with 10 or 15 mg/kg of liposomal Amphotericin B were still alive […] post infection.

C[C@@H]1[C@H](O)[C@@H](C)/C=C/C=C/C=C/C=C/C=C/C=C/C=C/[C@H](O[C@@H]2O[C@H](C)[C@@H](O)[C@H](N)[C@@H]2O)C[C@@H]2O[C@](O)(C[C@@H](O)C[C@@H](O)[C@H](O)CC[C@@H](O)C[C@@H](O)CC(=O)O[C@H]1C)C[C@H](O)[C@H]2C(=O)O [FREE AM B, Amphotericin B]
29 SURVIVORS (%) (AMB dose 0.5 mg/kg): (0%)
surviving mice at day 29 post infection (AMB dose 0.5 mg/kg): 0
29 SURVIVORS (%) (AMB dose 1.0 mg/kg): (0%)
surviving mice at day 29 post infection (AMB dose 1.0 mg/kg): 0
29 SURVIVORS (%) (AMB dose 1.5 mg/kg): (0%)
surviving mice at day 29 post infection (AMB dose 1.5 mg/kg): 0
survivors at 29 days post infection (any dose level): no dose level of free Amphotericin B which produced any survivors
